In this assay the target is T1, LAT-1 (Homo sapiens, UniProt Q01650).
T1 construct: endogenous in cells; host or cells: L3.6pl human pancreatic cancer cells
The assay is described as follows: 3H-Leucine uptake assay. Type of assay: cell-based. Conditions: L3.6pl cells, increasing concentration, 15 min uptake (FIG. 10D, 10E). As to the method: ^3H-Leucine uptake experiments were performed according to the protocol developed by Hälfliger et al. (2018) (referenced below with the following changes. Briefly, cells were seeded at 60% confluency in a 24-well plate and incubated for 4 h at 37° C. After 4 hours, different concentrations of compound 10 were added and the cells were then incubated overnight. L-^3H-leucine uptake inhibition was measured for 15 minutes using a 12 μM stock of L-[^3H]leucine (79 Ci/mmol). The final concentration of ^3H-leucine in each well was 1.2 uM. This concentration produced a CPM reading of ˜4000 cpm for the control. Uptake was terminated by removing the buffer solution followed by washing the cells with cold Na^+-free Hank's Balanced Salt Solution. Cells were then lysed to give ˜500 μL of cell lysate. A portion of the cell lysate (200 μL) was mixed with Scintiverse™ BD Cocktail for determining radiocounts. The radioactivity was measured with a scintillation counter (Beckman Coulter LS 6500 Multi-Purpose Scintillation Counter). Another portion of the cell lysate (300 μL) was used for protein determination using the BCA method. The final data was expressed as cpm/microgram of protein to account for the different number of cells remaining after the experiment. This was necessary because compound 10 was toxic and less cells were present after the overnight incubation (24 h). […]

T1 sequence (Q01650 whole entry): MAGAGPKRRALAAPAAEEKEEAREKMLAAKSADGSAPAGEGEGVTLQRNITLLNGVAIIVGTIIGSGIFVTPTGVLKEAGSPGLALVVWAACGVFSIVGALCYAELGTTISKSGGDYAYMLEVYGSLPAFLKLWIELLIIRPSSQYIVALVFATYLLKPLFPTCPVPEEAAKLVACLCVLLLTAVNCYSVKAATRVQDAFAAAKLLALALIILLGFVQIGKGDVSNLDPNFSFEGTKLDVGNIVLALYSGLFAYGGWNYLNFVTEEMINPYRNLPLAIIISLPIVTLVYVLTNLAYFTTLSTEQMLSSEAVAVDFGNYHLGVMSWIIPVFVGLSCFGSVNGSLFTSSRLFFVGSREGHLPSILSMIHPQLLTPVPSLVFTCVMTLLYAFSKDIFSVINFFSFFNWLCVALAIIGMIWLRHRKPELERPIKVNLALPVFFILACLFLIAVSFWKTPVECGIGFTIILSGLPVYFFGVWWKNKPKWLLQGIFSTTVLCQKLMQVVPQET
T1 sequence (P08195 102-630 partner): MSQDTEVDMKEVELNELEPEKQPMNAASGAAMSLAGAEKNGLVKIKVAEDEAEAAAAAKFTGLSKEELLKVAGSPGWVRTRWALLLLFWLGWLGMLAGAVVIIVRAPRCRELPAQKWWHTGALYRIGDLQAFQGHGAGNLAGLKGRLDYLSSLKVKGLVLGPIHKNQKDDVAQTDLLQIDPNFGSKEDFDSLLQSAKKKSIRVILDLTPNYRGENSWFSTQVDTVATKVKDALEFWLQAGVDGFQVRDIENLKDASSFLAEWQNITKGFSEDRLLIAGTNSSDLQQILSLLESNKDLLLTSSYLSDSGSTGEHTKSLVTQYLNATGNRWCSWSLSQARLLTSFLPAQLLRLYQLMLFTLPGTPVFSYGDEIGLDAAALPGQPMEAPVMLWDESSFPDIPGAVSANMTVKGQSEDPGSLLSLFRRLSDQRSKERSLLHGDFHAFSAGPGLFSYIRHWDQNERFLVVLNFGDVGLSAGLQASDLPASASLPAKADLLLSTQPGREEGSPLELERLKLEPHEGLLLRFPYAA

On to `CC(C)CCN1CCN(C(CNCc2ccccc2)CC2CCCCC2)CC1CC(C)C.Cl.Cl.Cl` (stereo not shown) [Compound 10, Benzyl-{3-cyclohexyl-2-[3-isobutyl-4-(3-methyl-butyl)-piperazin-1-yl]-propyl}-amine trihydrochloride salt], for which the 3H-Leucine uptake entry was “able to inhibit the uptake”.

For the origin of these results see US20210317090A1, “AMINO ACID DEPLETION AGENTS AS ANTIPROLIFERATIVE AGENTS” (University of Central Florida Research Foundation, Inc., priority 2018, published 2021).
